Test [1] concerns M. ab_ATCC. The test can be described thus: MIC against Mycobacterium abscessus (M. ab_ATCC, MHII), procedure of Franz 2017. Conditions: Mycobacterium abscessus ATCC; for MIC: Mycobacteroides abscessus. The class given is cell-based. The text has this: The procedure described in Franz 2017 was used to generate the data shown in column 2 of Table 1.
In test [2] the test system is M. tb H37Rv. The test can be described thus: MIC determination against M. tb H37Rv (MIC-MABA). The format is cell-based, Mycobacterium tuberculosis. The following applies: 7H9 broth, 10 days exposure, MIC = lowest concentration inhibiting fluorescence by 90%; for MIC: Mycobacterium tuberculosis, H37RV, 240 h, read-out: M. tb H37Rv: MIC-MABA, M. tb H37Rv.

Converted amounts (≈) assume the structure as drawn. Bounds are passed on as bounds.

`C[Si]1(C)CCCC(NC(=O)c2cc3sc(-c4ccccc4)nc3[nH]2)CC1` (racemic) [MPL-357, N-(1,1-dimethylsilepan-4-yl)-2-phenyl-4H-pyrrolo[2,3-d]thiazole-5-carboxamide]: the figures for the MIC in test [1] and in test [2] were above 64 µg/mL and 0.012 µg/mL (≈ 0.0313 µM), respectively.

As for `COc1nc2[nH]c(C(=O)NC3CCC[Si](C)(C)CC3)cc2s1` (racemic) [MPL-395, N-(1,1-dimethylsilepan-4-yl)-2-methoxy-4H-pyrrolo[2,3-d]thiazole-5-carboxamide], the MIC in test [1] amounted to 1 µg/mL (≈ 2.96 µM); in test [2], 0.047 µg/mL (≈ 0.139 µM).

In the case of `C[Si]1(C)CCCC(NC(=O)c2cc3sc(-c4ccccc4)nc3[nH]2)CC1` (single isomer, unassigned) [MPL-357A, N-(1,1-dimethylsilepan-4-yl)-2-phenyl-4H-pyrrolo[2,3-d]thiazole-5-carboxamide], the “M. tb H37Rv: MIC-MABA” value in test [2] stood at 0.007 µg/mL.

Consider `C[Si]1(C)CCCC(NC(=O)c2cc3sc(-c4ccccc4)nc3[nH]2)CC1` (single isomer, unassigned) [MPL-357B, N-(1,1-dimethylsilepan-4-yl)-2-phenyl-4H-pyrrolo[2,3-d]thiazole-5-carboxamide], for which the “M. tb H37Rv: MIC-MABA” value in test [2] worked out at 0.110 µg/mL.

`COc1nc2[nH]c(C(=O)NC3CCC[Si](C)(C)CC3)cc2s1` (single isomer, unassigned) [MPL-395A, N-(1,1-dimethylsilepan-4-yl)-2-methoxy-4H-pyrrolo[2,3-d]thiazole-5-carboxamide]: the “M. ab_ATCC: MIC MHII: MIC” value in test [1] is 0.5 µg/mL. In test [2], the “M. tb H37Rv: MIC-MABA” value was determined as 0.030 µg/mL.

In the case of `COc1nc2[nH]c(C(=O)NC3CCC[Si](C)(C)CC3)cc2s1` (single isomer, unassigned) [MPL-395B, N-(1,1-dimethylsilepan-4-yl)-2-methoxy-4H-pyrrolo[2,3-d]thiazole-5-carboxamide], the “M. ab_ATCC: MIC MHII: MIC” value in test [1] is above 64 µg/mL. In addition, in test [2], the “M. tb H37Rv: MIC-MABA” value turned out to be 0.999 µg/mL.

Consider `CC1CCC(NC(=O)c2cc3sc(-c4ccccc4)nc3[nH]2)CC1` (single isomer, unassigned) [MPL-433A, N-(4-methylcyclohexyl)-2-phenyl-4H-pyrrolo[2,3-d]thiazole-5-carboxamide], for which, in test [2], the MIC was above 1 µg/mL.

On to `CC1CCC(NC(=O)c2cc3sc(-c4ccccc4)nc3[nH]2)CC1` (single isomer, unassigned) [MPL-433B, N-(4-methylcyclohexyl)-2-phenyl-4H-pyrrolo[2,3-d]thiazole-5-carboxamide], for which, in test [2], the “M. tb H37Rv: MIC-MABA” value worked out at 0.69 µg/mL.

As to `Cc1nc2[nH]c(C(=O)NC3CCC(C)(C)CC3)cc2s1` [MPL-020, N-(4,4-dimethylcyclohexyl)-2-methyl-4H-pyrrolo[2,3-d]thiazole-5-carboxamide], the MIC in test [1] was found to be 2 µg/mL (≈ 6.86 µM); in test [2], 0.53 µg/mL (≈ 1.82 µM).

As for `CC1(C)CCC(NC(=O)c2cc3scnc3[nH]2)CC1` [MPL-021, N-(4,4-dimethylcyclohexyl)-4H-pyrrolo[2,3-d]thiazole-5-carboxamide], the MIC in test [1] was above 64 µg/mL; in test [2], 1.3 µg/mL (≈ 4.69 µM).

For `Cc1nc2[nH]c(C(=O)N[C@H]3C[C@H]4C[C@@H]([C@@H]3C)C4(C)C)cc2s1` [MPL-025, 2-methyl-N-[(1S,2S,3S,5R)-2,6,6-trimethylnorpinan-3-yl]-4H-pyrrolo[2,3-d]thiazole-5-carboxamide], the MIC in test [1] stood at 4 µg/mL (≈ 12.6 µM); in test [2], 0.71 µg/mL (≈ 2.24 µM).

Turning to `C[C@@H]1[C@@H](NC(=O)c2cc3scnc3[nH]2)C[C@H]2C[C@@H]1C2(C)C` [MPL-026, N-[(1S,2S,3S,5R)-2,6,6-trimethylnorpinan-3-yl]-4H-pyrrolo[2,3-d]thiazole-5-carboxamide], in test [2], the MIC was determined as 3.1 µg/mL (≈ 10.2 µM).

In the case of `Cc1nc2[nH]c(C(=O)NC3CCCCCCC3)cc2s1` [MPL-042, N-cyclooctyl-2-methyl-4H-pyrrolo[2,3-d]thiazole-5-carboxamide], the MIC in test [1] is above 64 µg/mL; in test [2], 0.35 µg/mL (≈ 1.2 µM).

Take `Cc1nc2cc(C(=O)N[C@H]3C[C@H]4C[C@@H]([C@@H]3C)C4(C)C)[nH]c2s1` [MPL-090, 2-methyl-N-((1S,2S,3S,5R)-2,6,6-trimethylbicyclo[3.1.1]heptan-3-yl)-4H-pyrrolo[3,2-d]thiazole-5-carboxamide]: the results for the MIC in test [1] and in test [2] were above 64 µg/mL and 3.2 µg/mL (≈ 10.1 µM), respectively.

For `Cc1nc2cc(C(=O)NC3CCCCCCC3)[nH]c2s1` [MPL-091, N-cyclooctyl-2-methyl-4H-pyrrolo[3,2-d]thiazole-5-carboxamide], the figures for the MIC in test [1] and in test [2] were above 64 µg/mL and above 3.2 µg/mL, respectively.

As for `O=C(NC1CCCCCCC1)c1cc2sc(C3CC3)nc2[nH]1` [MPL-142, N-cyclooctyl-2-cyclopropyl-4H-pyrrolo[2,3-d]thiazole-5-carboxamide], the MIC was above 64 µg/mL in test [1] and 0.93 µg/mL (≈ 2.93 µM) in test [2].

Take `C[C@@H]1[C@@H](NC(=O)c2cc3sc(C4CC4)nc3[nH]2)C[C@H]2C[C@@H]1C2(C)C` [MPL-144, 2-cyclopropyl-N-((1S,2S,3S,5R)-2,6,6-trimethylbicyclo[3.1.1]heptan-3-yl)-4H-pyrrolo[2,3-d]thiazole-5-carboxamide]: the MIC in test [1] is above 64 µg/mL; in test [2], 1.5 µg/mL (≈ 4.37 µM).

As to `Cc1c(C(=O)N[C@H]2C[C@H]3C[C@@H]([C@@H]2C)C3(C)C)[nH]c2nc(C3CC3)sc12` [MPL-150, 2-cyclopropyl-6-methyl-N-((1S,2S,3S,5R)-2,6,6-trimethylbicyclo[3.1.1]heptan-3-yl)-4H-pyrrolo[2,3-d]thiazole-5-carboxamide], the MIC is above 64 µg/mL in test [1] and 0.3 µg/mL (≈ 0.839 µM) in test [2].

Turning to `Cc1nc2[nH]c(C(=O)NC3CC[Si](C)(C)CC3)cc2s1` [MPL-205, N-(1,1-dimethylsilinan-4-yl)-2-methyl-4H-pyrrolo [2,3-d]thiazole-5-carboxamide], the MIC was above 64 µg/mL in test [1] and 0.18 µg/mL (≈ 0.585 µM) in test [2].

For `Cc1nc2cc(C(=O)NC3CC[Si](C)(C)CC3)[nH]c2s1` [MPL-206, N-(1,1-dimethylsilinan-4-yl)-2-methyl-4H-pyrrolo[3,2-d]thiazole-5-carboxamide], the MIC in test [1] is above 64 µg/mL; in test [2] it was above 1.6 µg/mL.

Regarding `Cc1nc2[nH]c(C(=O)N[C@H]3C[C@H]4C[C@H](C4(C)C)[C@@]3(C)O)cc2s1` [MPL-224, N-[(1R,2R,3S,5R)-2-hydroxy-2,6,6-trimethyl-norpinan-3-yl]-2-methyl-4H-pyrrolo[2,3-d]thiazole-5-carboxamide], the MIC is above 64 µg/mL in test [1] and 0.39 µg/mL (≈ 1.17 µM) in test [2].

On to `Cc1c(C(=O)NC2CC[Si](C)(C)CC2)[nH]c2nc(C3CC3)sc12` [MPL-228, 2-cyclopropyl-N-(1,1-dimethylsilinan-4-yl)-6-methyl-4H-pyrrolo[2,3-d]thiazole-5-carboxamide], for which the MIC in test [1] was above 64 µg/mL; in test [2], 0.061 µg/mL (≈ 0.176 µM).

As to `CC(C)(C)c1ccc(-c2nc3[nH]c(C(=O)NC4CC[Si]5(CCCCC5)CC4)cc3s2)cc1` [MPL-426, 2-(4-tert-butylphenyl)-N-(6-silaspiro[5.5]undecan-3-yl)-4H-pyrrolo[2,3-d]thiazole-5-carboxamide], in test [2], the MIC was determined as 0.12 µg/mL (≈ 0.258 µM).

`COc1nc2[nH]c(C(=O)N[C@H]3C[C@H]4C[C@H](C4(C)C)[C@@]3(C)O)cc2s1` [MPL-457, N-[(1R,2R,3S,5R)-2-hydroxy-2,6,6-trimethyl-norpinan-3-yl]-2-methoxy-4H-pyrrolo[2,3-d]thiazole-5-carboxamide]: the MIC in test [2] is above 1 µg/mL.

Broadly, the MIC is the lowest concentration that inhibits growth of the organism.

For the origin of these results see patent publication US20220396586A1, “THIAZOLE CARBOXAMIDE COMPOUNDS AND USE THEREOF FOR THE TREATMENT OF MYCOBACTERIAL INFECTIONS” (THE GLOBAL ALLIANCE FOR TB DRUG DEVELOPMENT, INC., priority 2019, published 2022).
